Assay results reported in patent US20230233569A1 (Revolution Medicines, Inc., priority 2020, published 2023).
Read-outs that look alike come from different tables or passages of the source.

How the values were obtained:
KRAS G13D = KRAS G13D (Homo sapiens, UniProt P01116+P62937, G13D); experiment: Disruption of BRAF RBD interaction with Ras (FRET / MOA assay, with Cyclophilin A); format: biochemical
Description: (§1) This protocol may also be executed substituting other Ras proteins or nucleotides.
(§2) The purpose of this biochemical assay was to measure the ability of test compounds to facilitate ternary complex formation between a nucleotide-loaded K-Ras isoform and Cyclophilin A; the resulting ternary complex disrupts binding to a BRAF^RBD construct, inhibiting K-Ras signaling through a RAF effector. Data is reported as IC50 values.
(§3) Compound was present in plate wells as a 10-point 3-fold dilution series starting at a final concentration of 30 μM. After incubation at 25° C. for 3 hours, a mixture of Anti-His Eu-W1024 and anti-GST allophycocyanin was then added to assay sample wells at final concentrations of 10 nM and 50 nM, respectively, and the reaction incubated for an additional 1.5 hours. […] Compounds that facilitate disruption of a K-Ras:RAF complex were identified as those eliciting a decrease in the TR-FRET ratio relative to DMSO control wells.
(§4) The purpose of this biochemical assay was to measure the ability of test compounds to facilitate ternary complex formation between a nucleotide-loaded K-Ras isoform and Cyclophilin A; the resulting ternary complex disrupts binding to a BRAF^RBDD construct, inhibiting K-Ras signaling through a RAF effector. Data is reported as IC50 values.

KRAS G12S = KRAS G12S (Homo sapiens, UniProt P01116+P62937, G12S); experiment: as above; format: biochemical
Chain of KRAS G12S (P01116 1-169 isoform P01116-2 G12S limits assumed): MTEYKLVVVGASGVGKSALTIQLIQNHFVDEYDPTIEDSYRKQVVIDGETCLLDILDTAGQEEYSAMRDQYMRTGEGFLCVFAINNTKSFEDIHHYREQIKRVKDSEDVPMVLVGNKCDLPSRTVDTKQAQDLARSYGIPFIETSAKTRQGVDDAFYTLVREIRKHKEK
Chain of KRAS G12S (P62937 whole entry): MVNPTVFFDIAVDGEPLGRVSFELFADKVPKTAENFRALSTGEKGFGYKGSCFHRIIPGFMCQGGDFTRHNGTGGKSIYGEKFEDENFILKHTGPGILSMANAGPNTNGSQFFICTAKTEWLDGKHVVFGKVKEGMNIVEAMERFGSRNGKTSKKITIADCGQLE
Description: as §1, §2, §3, §4

KRAS G12V = KRAS G12V (Homo sapiens, UniProt P01116+P62937, G12V); experiment: as above; format: biochemical
Chain of KRAS G12V (P01116 1-169 isoform P01116-2 G12V limits assumed): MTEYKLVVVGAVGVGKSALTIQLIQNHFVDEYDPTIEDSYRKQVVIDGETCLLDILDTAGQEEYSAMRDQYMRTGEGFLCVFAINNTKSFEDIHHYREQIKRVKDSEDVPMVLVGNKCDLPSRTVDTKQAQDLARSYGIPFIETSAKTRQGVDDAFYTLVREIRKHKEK
Chain of KRAS G12V (P62937 whole entry): as the sequence (P62937 whole entry) above
Description: as §1, §2, §3, §4

KRAS WT = KRAS WT (Homo sapiens, UniProt P01116+P62937); experiment: as above; format: biochemical
Chain of KRAS WT (P01116 1-169 isoform P01116-2 limits assumed): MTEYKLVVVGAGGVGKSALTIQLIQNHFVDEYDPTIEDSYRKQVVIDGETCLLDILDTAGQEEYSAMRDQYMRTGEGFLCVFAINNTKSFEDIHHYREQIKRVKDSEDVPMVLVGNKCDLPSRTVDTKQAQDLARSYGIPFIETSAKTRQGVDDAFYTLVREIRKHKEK
Chain of KRAS WT (P62937 whole entry): as the sequence (P62937 whole entry) above
Description: as §1, §2, §3, §4

KRAS G12D = KRAS G12D (Homo sapiens, UniProt P01116+P62937, G12D); experiment: as above; format: biochemical
Chain of KRAS G12D (P01116 1-169 isoform P01116-2 G12D limits assumed): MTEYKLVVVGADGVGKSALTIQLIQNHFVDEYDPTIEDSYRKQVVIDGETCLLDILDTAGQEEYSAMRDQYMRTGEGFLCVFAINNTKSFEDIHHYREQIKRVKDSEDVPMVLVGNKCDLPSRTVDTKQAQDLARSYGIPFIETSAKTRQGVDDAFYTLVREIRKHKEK
Chain of KRAS G12D (P62937 whole entry): as the sequence (P62937 whole entry) above
Description: as §1, §2, §3, §4

KRAS G13C = KRAS G13C (Homo sapiens, UniProt P01116+P62937, G13C); experiment: as above; format: biochemical
Chain of KRAS G13C (P01116 1-169 isoform P01116-2 G13C): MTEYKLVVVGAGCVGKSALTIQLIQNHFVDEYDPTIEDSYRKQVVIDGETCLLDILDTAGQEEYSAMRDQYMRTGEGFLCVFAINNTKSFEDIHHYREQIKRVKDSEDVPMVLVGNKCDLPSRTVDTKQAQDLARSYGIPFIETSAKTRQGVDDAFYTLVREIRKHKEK
Chain of KRAS G13C (P62937 whole entry): as the sequence (P62937 whole entry) above
Description: as §1, §2, §3, §4

KRAS G12C = KRAS G12C (Homo sapiens, UniProt P01116+P62937, G12C); experiment: as above; format: biochemical
Chain of KRAS G12C (P01116 1-169 isoform P01116-2 G12C): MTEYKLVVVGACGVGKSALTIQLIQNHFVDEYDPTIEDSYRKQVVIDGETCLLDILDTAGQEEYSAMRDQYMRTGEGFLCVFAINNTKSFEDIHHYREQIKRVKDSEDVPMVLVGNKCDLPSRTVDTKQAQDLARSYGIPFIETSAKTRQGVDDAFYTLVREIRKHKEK
Chain of KRAS G12C (P62937 whole entry): as the sequence (P62937 whole entry) above
Description: as §1, §2, §3, §4

NCI-H358 (K-Ras G12C) = experiment: CellTiter-Glo cell viability assay, 5-day treatment; format: cell-based; conditions: Homo sapiens
Procedure: Protocol: CellTiter-Glo® Cell Viability Assay
Note—The following protocol describes a procedure for monitoring cell viability of K-Ras mutant cancer cell lines in response to a compound of the invention. Other RAS isoforms may be employed, though the number of cells to be seeded will vary based on cell line used.
Test compounds (132.5 nL) were directly dispensed into the assay plates containing cells. […] On day 5, assay plates and their contents were equilibrated to room temperature for approximately 30 minutes. […] Luminescence was measured using the PerkinElmer Enspire. Data were normalized by the following: (Sample signal/Avg. DMSO)*100. The data were fit using a four-parameter logistic fit.
Test compounds (132.5 nl) were directly dispensed into the assay plates containing cells. […] On day 5, assay plates and their contents were equilibrated to room temperature for approximately 30 minutes. […] Luminescence was measured using the PerkinElmer Enspire. Data were normalized by the following: (Sample signal/Avg. DMSO)*100. The data were fit using a four-parameter logistic fit.

NRAS G12C = NRAS G12C (Homo sapiens, UniProt P01111+P62937, G12C); experiment: Disruption of BRAF RBD interaction with Ras (FRET / MOA assay, with Cyclophilin A); format: biochemical
Chain of NRAS G12C (P01111 whole entry G12C): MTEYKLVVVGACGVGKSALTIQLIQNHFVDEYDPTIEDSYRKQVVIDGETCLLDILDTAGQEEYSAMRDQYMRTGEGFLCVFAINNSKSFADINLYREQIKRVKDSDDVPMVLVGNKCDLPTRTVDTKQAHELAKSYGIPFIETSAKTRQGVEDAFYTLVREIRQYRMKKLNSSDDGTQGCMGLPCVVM
Chain of NRAS G12C (P62937 whole entry): as the sequence (P62937 whole entry) above
Description: as §1, §2, §3, §4

[1] = KRAS G13D FRET data IC50, KRAS G13D
[2] = KRAS G12V FRET data IC50, KRAS G12V
[3] = KRAS WT FRET data IC50, KRAS WT
[4] = NCI-H358, 120 h, 5-day treatment, read-out: H358 Cell Viability assay data (K-Ras G12C, IC50)
[5] = NRAS G12C FRET data IC50, NRAS G12C
[6] = KRAS G13D, read-out: KRAS G13D FRET data IC50
[7] = read-out: KRAS G12S FRET data, IC50
[8] = KRAS G12V, read-out: KRAS G12V FRET data IC50
[9] = KRAS WT, read-out: KRAS WT FRET data IC50
[10] = read-out: KRAS G12D FRET data, IC50
[11] = NRAS G12C, read-out: NRAS G12C FRET data IC50
[12] = read-out: KRAS G13C FRET data, IC50
[13] = read-out: KRAS G12C FRET data, IC50
[14] = KRAS G12C, read-out: KRAS G12C FRET data IC50
[15] = NCI-H358, H358, K-Ras G12C, read-out: Additional H358 Cell Viability assay data (K-Ras G12C, IC50)

Chain of KRAS G13D (P01116 1-169 isoform P01116-2 G13D limits assumed): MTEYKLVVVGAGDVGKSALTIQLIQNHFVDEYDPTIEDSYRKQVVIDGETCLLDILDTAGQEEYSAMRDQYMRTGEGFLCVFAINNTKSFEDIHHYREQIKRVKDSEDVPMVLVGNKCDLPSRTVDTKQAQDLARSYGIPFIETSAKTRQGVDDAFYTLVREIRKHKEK
Chain of KRAS G13D (P62937 whole entry): as the sequence (P62937 whole entry) above

Row | Compound | IC50 (NCI-H358 (K-Ras G12C); [4]) | IC50 (KRAS G13D; [6]) | IC50 (KRAS G12S; [7]) | IC50 (KRAS G12V; [8]) | IC50 (KRAS WT; [9]) | IC50 (KRAS G12D; [10]) | IC50 (NRAS G12C; [11]) | IC50 (KRAS G13C; [12]) | IC50 (KRAS G12C; [13]) | other results
1 | CCn1c(-c2ccccc2CCOC)c2c3cc(ccc31)-c1cc(O)cc(c1)C[C@H](NC(=O)[C@H](C(C)C)N(C)C(=O)CCN)C(=O)N1CCC[C@H](N1)C(=O)OCC(C)(C)C2 [Example A70] | 1000 to 10000 nM | – | – | – | – | – | – | – | – | IC50 (KRAS G13D; [1]): 1000 to 10000 nM; IC50 (KRAS G12S; KRAS G12S FRET data, IC50): 1000 to 10000 nM; IC50 (KRAS G12V; [2]): > 10000 nM; IC50 (KRAS WT; [3]): 1000 to 10000 nM; IC50 (KRAS G12D; KRAS G12D FRET data, IC50): 1000 to 10000 nM; IC50 (KRAS G13C; KRAS G13C FRET data, IC50): 1000 to 10000 nM; IC50 (KRAS G12C; KRAS G12C FRET data, IC50): 1000 to 10000 nM
2 | CCn1c(-c2cnccc2COC)c2c3cc(ccc31)-c1cc(O)cc(c1)C[C@H](NC(=O)[C@H](C(C)C)N(C)C(=O)[C@H]1CCN(CCO)C1)C(=O)N1CCC[C@H](N1)C(=O)OCC(C)(C)C2 [Example A23, (2S)—N-[(8S,14S)-22-ethyl-4-hydroxy-21-[4-(methoxymethyl)pyridin-3-yl]-18,18-dimethyl-9,15-dioxo-16-oxa-10,22,28-triazapentacyclo[18.5.2.1^2,6.1^10,14.0^23,27]nonacosa-1(26),2,4,6(29),20,23(27),24-heptaen-8-yl]-2-{1-[(3S)-1-(2-hydroxyethyl)pyrrolidin-3-yl]-N-methylformamido}-3-methylbutanamide] | 1000 to 10000 nM | – | – | – | – | – | – | – | – | IC50 (KRAS G13D; [1]): 10 to 100 nM; IC50 (KRAS G12S; KRAS G12S FRET data, IC50): 100 to 1000 nM; IC50 (KRAS G12V; [2]): 1000 to 10000 nM; IC50 (KRAS WT; [3]): 10 to 100 nM; IC50 (KRAS G12D; KRAS G12D FRET data, IC50): 100 to 1000 nM; IC50 (NRAS G12C; [5]): 100 to 1000 nM; IC50 (KRAS G13C; KRAS G13C FRET data, IC50): 10 to 100 nM; IC50 (KRAS G12C; KRAS G12C FRET data, IC50): 100 to 1000 nM
3 | CCn1c(-c2cccnc2[C@H](C)OC)c2c3cc(ccc31)-c1cc(O)cc(c1)C[C@H](NC(=O)[C@H](C(C)C)N(C)C(=O)[C@@H]1CNC[C@@H]1C)C(=O)N1CCC[C@H](N1)C(=O)OCC(C)(C)C2 [Example A128] | 1000 to 10000 nM | 10 to 100 nM | 10 to 100 nM | 100 to 1000 nM | 10 to 100 nM | 10 to 100 nM | 10 to 100 nM | 10 to 100 nM | – | –
4 | CCn1c(-c2cnccc2COC)c2c3cc(ccc31)-c1cc(O)cc(c1)C[C@H](NC(=O)[C@H](C(C)C)N1CCCCC1=O)C(=O)N1CCC[C@H](N1)C(=O)OCC(C)(C)C2 [Example A44] | 1000 to 10000 nM | 1000 to 10000 nM | 1000 to 10000 nM | 100 to 1000 nM | 100 to 1000 nM | 1000 to 10000 nM | 100 to 1000 nM | 1000 to 10000 nM | 100 to 1000 nM | –
5 | CCn1c(-c2cnccc2COC)c2c3cc(ccc31)-c1cc(O)cc(c1)C[C@H](NC(=O)[C@H](C(C)C)N(C)C(=O)[C@H]1CCN(C)C1)C(=O)N1CCC[C@H](N1)C(=O)OCC(C)(C)C2 [Example A27, (2S)—N-[(8S,14S)-22-ethyl-4-hydroxy-21-[4-(methoxymethyl)pyridin-3-yl]-18,18-dimethyl-9,15-dioxo-16-oxa-10,22,28-triazapentacyclo[18.5.2.1^2,6.1^10,14.0^23,27]nonacosa-1(26),2,4,6(29),20,23(27),24-heptaen-8-yl]-3-methyl-2-{N-methyl-1-[(3S)-1-methylpyrrolidin-3-yl]formamido}butanamide] | 1000 to 10000 nM | – | – | – | – | – | – | – | – | IC50 (KRAS G13D; [1]): 10 to 100 nM; IC50 (KRAS G12S; KRAS G12S FRET data, IC50): 100 to 1000 nM; IC50 (KRAS G12V; [2]): 1000 to 10000 nM; IC50 (KRAS WT; [3]): 100 to 1000 nM; IC50 (KRAS G12D; KRAS G12D FRET data, IC50): 100 to 1000 nM; IC50 (NRAS G12C; [5]): 100 to 1000 nM; IC50 (KRAS G13C; KRAS G13C FRET data, IC50): 10 to 100 nM; IC50 (KRAS G12C; KRAS G12C FRET data, IC50): 100 to 1000 nM
6 | CCn1c(-c2cccnc2COC)c2c3cc(ccc31)-c1cc(O)cc(c1)C[C@H](NC(=O)[C@H](C(C)C)N(C)C(=O)[C@H](N)CCCNC(=N)N)C(=O)N1CCC[C@H](N1)C(=O)OCC(C)(C)C2 [Example A48] | > 10000 nM | – | 100 to 1000 nM | 1000 to 10000 nM | 100 to 1000 nM | 100 to 1000 nM | – | 100 to 1000 nM | 100 to 1000 nM | –
7 | CCn1c(-c2cnccc2COC)c2c3cc(ccc31)-c1cc(O)cc(c1)C[C@H](NC(=O)[C@H](C(C)C)N(C)C(=O)[C@H]1CCN(C(C)C)C1)C(=O)N1CCC[C@H](N1)C(=O)OCC(C)(C)C2 [Example A41] | 1000 to 10000 nM | – | 100 to 1000 nM | 1000 to 10000 nM | 100 to 1000 nM | 100 to 1000 nM | – | 10 to 100 nM | 100 to 1000 nM | –
8 | C=CC(=O)N1CC(OC[C@H](C(=O)N[C@H]2Cc3cccc(c3)-c3ccc4c(c3)c(c(-c3cccnc3[C@H](C)OC)n4CC(F)(F)F)CC(C)(C)COC(=O)[C@@H]3CCCN(N3)C2=O)C(C)C)C1 [Example A453] | – | > 10000 nM | > 10000 nM | > 10000 nM | > 10000 nM | – | 1000 to 10000 nM | – | – | IC50 (KRAS G13C; KRAS G13C, read-out: KRAS G13C FRET data IC50): > 10000 nM; IC50 (KRAS G12C; [14]): 1000 to 10000 nM; IC50 (NCI-H358 (K-Ras G12C); [15]): 100 to 1000 nM
9 | CCn1c(-c2cccnc2COC)c2c3cc(ccc31)-c1cc(O)cc(c1)C[C@H](NC(=O)[C@H](C(C)C)N(C)C(=O)[C@H]1CCN(C(C)=O)C1)C(=O)N1CCC[C@H](N1)C(=O)OCC(C)(C)C2 [Example A22] | 1000 to 10000 nM | 1000 to 10000 nM | 100 to 1000 nM | 100 to 1000 nM | 100 to 1000 nM | 1000 to 10000 nM | – | 100 to 1000 nM | 100 to 1000 nM | –
10 | C=CC(=O)N1CC[C@H](C(=O)N(C)[C@H](C(=O)N[C@H]2CCC(=O)N(C)Cc3ccc4c(c3)c(c(-c3cccnc3[C@H](C)OC)n4CC)CC(C)(C)COC(=O)[C@@H]3CCCN(N3)C2=O)C(C)C)C1 [Example A500] | – | > 10000 nM | – | – | – | – | > 10000 nM | – | – | IC50 (KRAS G12C; [14]): > 10000 nM; IC50 (NCI-H358 (K-Ras G12C); [15]): > 1000 nM
11 | CCn1c(-c2cccnc2[C@H](C)OC)c2c3cc(ccc31)-c1cc(O)cc(c1)C[C@H](NC(=O)[C@H](C(C)C)N(C)C(=O)[C@@H]1C[C@@H]1F)C(=O)N1CCC[C@H](N1)C(=O)OCC(C)(C)C2 [Example A160] | 10 to 100 nM | – | – | 10 to 100 nM | – | – | – | – | – | –
12 | CCn1c(-c2cnccc2COC)c2c3cc(ccc31)-c1cc(O)cc(c1)C[C@H](NC(=O)[C@H](C(C)C)N(C)C(=O)[C@@H]1CCN(C[C@@H](C)O)C1)C(=O)N1CCC[C@H](N1)C(=O)OCC(C)(C)C2 [Example A31] | > 10000 nM | – | – | – | – | – | 100 to 1000 nM | – | – | –
